Test results taken from patent US20260007599A1, “TICAGRELOR IV FORMULATIONS FOR USE IN THE TREATMENT OF GRAM-POSITIVE BACTEREMIA” (Hyloris Developments SA, priority 2023, published 2026).

How the values were obtained:
[1] = Clear aqueous solutions with ticagrelor-cyclodextrin inclusion complex (Table 17); type: physicochemical; details: using 20-40% w/w HPβCD
[2] = Storage stability of ticagrelor 6 mg/ml in HPβCD 40% w/w, phosphate buffer pH 7.5, 40° C./75% RH; type: physicochemical
Experimental: A Gradient HPLC method was used to analyze impurities in formulations using a YMC-Pack Pro C18 column (100×4.6 mm, S-3 μm 12 nm). Good separation was obtained for all the impurities. Following the experiment described in example 2, a storage stability study at pH 7.5 was conducted First HPβCD was dissolved in a phosphate buffer solution of pH 7.5 prepared separately in water. […] The solution was filtered through a 0.22 micrometer filter and filled in USP Type I amber colored glass vials. The vials were stoppered and stored. All precautions were taken during manufacturing, such as N2 purging and avoiding direct exposure to light.

[3] = Impact of packaging material on stability, 40° C./75% RH; type: physicochemical; parameters: Assay: unit not given here; details: for Acetal impurity / Amine impurity / Assay / Description / Regiomer / Sum impurities >0.05 / Total (impurity) / Triol impurity / pH: HPβCD 32.5% w/w, 5 mM pH 7.5 phosphate buffer, 40° C./75% RH
Experimental: To study the potential impact of the packaging material on the stability of the ticagrelor-cyclodextrin inclusion complex, a composition with 32.5% w/w HPβCD was prepared with procedures and precaution's similar to previous trials; samples were stored in transparent clear glass vials and amber colored glass vials at a temperature of 40° C./75% RH.

[4] = Dilution of a concentrated ticagrelor vial (8 ml, 65 mg ticagrelor, about 3 g HPβCD); type: physicochemical
[5] = tested on: vancomycin-resistant E. Faecalis (VRE); details: ex-vivo; cited from earlier work
[6] = Maximum solubility of ticagrelor in HPβCD solution without heat; type: physicochemical; details: without the use of heat
Source text: In a further example, the maximum solubility of ticagrelor in an HPβCD solution, without the use of heat, was investigated.

[7] = Storage stability of Example 14 aqueous ticagrelor solutions; type: physicochemical; details: 5-15 mg/ml ticagrelor, 20-40% w/w HPβCD; 40° C. and 75% Relative Humidity
Experimental: Aqueous ticagrelor solutions for intravenous administration were prepared with the following composition: • 5-15 mg/ml Ticagrelor • 20-40% w/w HPβCD • Q·S to 1 ml Acetate or Phosphate Buffer pH 4.5 to 6.5 • pH solution: 6-8 • Osmolality solution: 350-900 mOsm/kg
Packaged in a glass vial, containing 5-15 ml aqueous ticagrelor solution.
Storage stability: at least 3 months at 40° C. and 75% Relative Humidity

[8] = Impact of ticagrelor particle size on dissolution; type: physicochemical
Experimental: In a further example the impact of particle size on solubility was tested. Two different particle size diameters for the ticagrelor active ingredient were screened, 5.5 and 15 micrometers. The pH and osmolality were not affected.

[9] = particle distribution D90 5.5 μm, micronized
[10] = particle distribution D90 15 μm, unmicronized

## CCCSc1nc(N[C@@H]2C[C@H]2c2ccc(F)c(F)c2)c2nnn([C@@H]3C[C@H](OCCO)[C@@H](O)[C@H]3O)c2n1 [ticagrelor, (1S,2S,3R,5S)-3-{7-[(1R,2S)-2-(3,4-difluorophenyl)cyclopropylamino]5-(propylthio)-3H-(1,2,3)triazolo (4,5-D)pyrimidin-3-yl}-5-(2 hydroxyethoxy) cyclopentane-1,2-diol]
[1]
  ticagrelor solution concentration achieved: 5 −13 mg/ml
[2]; T = 0, 40° C./75% RH
  Acetal impurity: 0.05%
  Amine impurity: 0.04%
  Assay ticagrelor: 104.27%
  Regiomer impurity: 0.00%
  Sum impurities >0.05: 0.11%
  Total impurities: 0.31%
  Triol impurity: 0.04%
[2]; T = 4 weeks, 40° C./75% RH
  Acetal impurity: 0.05%
  Amine impurity: 0.05%
  Assay ticagrelor: 104.47%
  Regiomer impurity: 0.01%
  Sum impurities >0.05: 0.14%
  Total impurities: 0.32%
  Triol impurity: 0.05%
[2]; T = 8 weeks, 40° C./75% RH
  Acetal impurity: 0.05%
  Amine impurity: 0.05%
  Assay ticagrelor: 102.59%
  Regiomer impurity: 0.04%
  Sum impurities >0.05: 0.15%
  Total impurities: 0.29%
  Triol impurity: 0.05%
[2]; T = 12 weeks, 40° C./75% RH
  Acetal impurity: 0.05%
  Amine impurity: 0.05%
  Assay ticagrelor: 102.31%
  Regiomer impurity: 0.08%
  Sum impurities >0.05: 0.23%
  Total impurities: 0.41%
  Triol impurity: 0.04%
[2]; T = 24 Weeks, 40° C./75% RH
  Acetal impurity: 0.05%
  Amine impurity: 0.07%
  Assay ticagrelor: 104.39%
  Regiomer impurity: 0.16%
  Sum impurities >0.05: 0.33%
  Total impurities: 0.35%
  Triol impurity: 0.05%
[2]; accelerated storage conditions of 40° C. and 75% Relative Humidity
  storage stability (conclusion): good storage stability
[3]; accelerated storage stability test, after 3 months
  difference between clear and amber glass vials: no significant difference
[3]; accelerated storage stability test, without the cyclodextrin
  number of different impurities developed on storage: 6 to 8
[3]; amber glass vials, 1 M
  Acetal impurity: 0.05%
  Amine impurity: 0.04%
  Assay: 100.24
  Description: clear
  Regiomer: 0.01%
  Sum impurities >0.05: 0.05%
  Total (impurity): 0.22%
  Triol impurity: 0.02%
  pH: 7.70
[3]; amber glass vials, 2 M
  Acetal impurity: 0.04%
  Amine impurity: 0.04%
  Assay: 99.89
  Description: clear
  Regiomer: 0.02%
  Sum impurities >0.05: 0.00%
  Total (impurity): 0.28%
  Triol impurity: 0.04%
  pH: 7.69
[3]; amber glass vials, 3 M
  Acetal impurity: 0.05%
  Amine impurity: 0.06%
  Assay: 98.93
  Description: clear
  Regiomer: 0.04%
  Sum impurities >0.05: 0.16%
  Total (impurity): 0.33%
  Triol impurity: 0.05%
  pH: 7.66
[3]; amber glass vials, T0
  Acetal impurity: 0.05%
  Amine impurity: 0.04%
  Assay: 98.34
  Description: clear
  Regiomer: 0.00%
  Sum impurities >0.05: 0.18%
  Total (impurity): 0.40%
  Triol impurity: 0.04%
  pH: 7.66
[3]; clear glass vials, 1 M
  Acetal impurity: 0.04%
  Amine impurity: 0.04%
  Assay: 101.71
  Description: clear
  Regiomer: 0.01%
  Sum impurities >0.05: 0.00%
  Total (impurity): 0.22%
  Triol impurity: 0.03%
  pH: 7.65
[3]; clear glass vials, 2 M
  Acetal impurity: 0.04%
  Amine impurity: 0.04%
  Assay: 99.69
  Description: clear
  Regiomer: 0.02%
  Sum impurities >0.05: 0.05%
  Total (impurity): 0.28%
  Triol impurity: 0.05%
  pH: 7.63
[3]; clear glass vials, 3 M
  Acetal impurity: 0.05%
  Amine impurity: 0.06%
  Assay: 98.25
  Description: clear
  Regiomer: 0.04%
  Sum impurities >0.05: 0.16%
  Total (impurity): 0.33%
  Triol impurity: 0.05%
  pH: 7.58
[3]; clear glass vials, T0
  Acetal impurity: 0.05%
  Amine impurity: 0.04%
  Assay: 98.34
  Description: clear
  Regiomer: 0.00%
  Sum impurities >0.05: 0.22%
  Total (impurity): 0.40%
  Triol impurity: 0.05%
  pH: 7.65
[4]; 0,9 w/v % NaCl solution as diluent
  clear solution on dilution: not possible
[4]; diluted with 25 ml 5 w/v % dextrose, final volume 33 ml
  appearance after dilution: clear solution
[5]
  minimal bactericidal concentration: 20 microgram/ml
[6]; HPβCD 30% w/w
  Ticagrelor (maximum solubility in HPβCD solution): 8000 µg/mL
[6]; HPβCD 33% w/w
  Ticagrelor (maximum solubility in HPβCD solution): 9000 µg/mL
[7]
  Storage stability: at least 3 months
[8]; [9]
  Dissolution time: 33 min
  Osmolality: 751 mOsm/kg
  pH: 7.68
[8]; [10]
  Dissolution time: 125 min
  Osmolality: 753 mOsm/kg
  pH: 7.70
